Data on two compounds can be found in patent EP0353678B1, “FR-901154 and FR-901155 substances, a process for their production” (priority 1988, dated 1990).

The nature of data set [1]: Solubility (physical and chemical properties). Type of data set: physicochemical. On the procedure: (23)/(D) [formula] : -74° (c = 1.8, CHCl₃) (8) Ultraviolet Absorption Spectrum: end absorption (9) Infrared Absorption Spectrum: [drawing 4] 3570, 3500, 2940, 2880, 2820, 1740, 1710, 1700, 1640, 1460, 1450, 1380, 1350, 1320, 1280, 1230, 1190, 1170, 1140, 1100, 1090, 1050, 1040, 1000, 990, 940, 910 cm⁻¹ (10) ¹³C Nuclear Magnetic Resonance Spectrum: δ(ppm, CDCl₃, 100MHz): [formula] [formula] (11) ¹H Nuclear Magnetic Resonance Spectrum: the chart of which being shown in Figure 3, (12) Thin Layer Chromatography: […]

Data set [2] concerns Aspergillus niger IFO 4417. In words: Antimicrobial activity against fungi, serial agar dilution method in Sabouraud agar. Type of data set: cell-based. Details: unit not given here. As to conditions: 30°C for 24 hours. On the procedure: Antimicrobial activities of the FR-901154 and FR-901155 Substances Antimicrobial activities of the FR-901154 and FR-901155 substances against various fungi were determined by a serial agar dilution method in a Sabouraud agar. Minimum inhibitory concentrations (MIC) were expressed in terms of »g/ml after incubation at 30°C for 24 hours. […]
In general terms: In agar dilution the substance is mixed into plates at graded concentrations.

Molecules are shown by their SMILES.

On to `CCCC1C=C(C)CC(C)CC(OC)C2OC(O)(C(=O)C(=O)N3CCCCC3C(=O)OC(C(C)=CC3CCC(O)C(OC)C3)C(C)C(O)CC1=O)C(C)CC2OC` (stereo not shown) [FR-901156, 1,14-dihydroxy-12-[2-(4-hydroxy-3-methoxycyclohexyl)-1-methylvinyl]-23,25-dimethoxy-13,19,21,27-tetramethyl-17-propyl-11,28-dioxa-4-azatricyclo[22.3.1.0^4,9]octacos-18-ene-2,3,10,16-tetraone], for which the Solubility entry in data set [1] (methanol, ethanol, acetone, ethyl acetate, chloroform, diethyl ether, benzene and acetonitrile) is given as “Soluble”; in data set [1] (n-hexane and petroleum ether) it was “Sparingly Soluble”; in data set [1] (water) it was “Insoluble”.

For `C=CCC1/C=C(\C)CC(C)CC(OC)C2OC(O)(C(=O)C(=O)N3CCCCC3C(=O)OC(/C(C)=C/C3CCC(O)C(O)C3)C(C)C(O)CC1=O)C(C)CC2OC` (stereo not shown) [FR-901154], in data set [2], the “MIC Value” is 0.025.
